Counter-ions that a name gives are not always drawn. Like-named read-outs stand apart in the source and are kept apart here.
Tests used:
[1] = target: T1, α-1A adrenoreceptor (Rattus norvegicus, UniProt P43140); test: cell-based; settings: phenylephrine-induced contraction, Schild plot; for Kb: read-out: In Vitro Characterization (pA2) Rat Vas (converted)
T1 sequence (P43140 1-466): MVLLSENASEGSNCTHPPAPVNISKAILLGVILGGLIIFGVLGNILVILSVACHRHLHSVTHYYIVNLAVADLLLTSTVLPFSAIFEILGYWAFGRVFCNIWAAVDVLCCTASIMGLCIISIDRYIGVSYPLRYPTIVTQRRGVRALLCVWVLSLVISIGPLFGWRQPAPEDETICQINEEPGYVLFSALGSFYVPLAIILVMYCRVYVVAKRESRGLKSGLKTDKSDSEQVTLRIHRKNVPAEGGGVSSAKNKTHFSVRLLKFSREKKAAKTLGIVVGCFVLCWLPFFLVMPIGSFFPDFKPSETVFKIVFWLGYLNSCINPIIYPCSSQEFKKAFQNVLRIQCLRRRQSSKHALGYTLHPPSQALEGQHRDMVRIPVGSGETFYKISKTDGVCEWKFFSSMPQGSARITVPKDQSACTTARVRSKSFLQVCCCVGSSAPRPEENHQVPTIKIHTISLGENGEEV
Text: Functional assays indicative of pharmacologically defined α-1 adrenoreceptors were used to further characterize compounds. Inhibition of phenylephrine (PE)-induced contraction of canine prostate smooth muscle can be correlated with α-1A adrenoreceptor activation. […] For each of these models, agonist dose response curves were repeated against increasing concentrations of test agent to derive a Schild plot [log ([…]) against log (molarity of test agent)] to determine the pA2.

[2] = target: T2, α-1b adrenoreceptor (Mesocricetus auratus, UniProt P18841); test: biochemical; assay type: binding, hamster
T2 sequence (P18841 1-515): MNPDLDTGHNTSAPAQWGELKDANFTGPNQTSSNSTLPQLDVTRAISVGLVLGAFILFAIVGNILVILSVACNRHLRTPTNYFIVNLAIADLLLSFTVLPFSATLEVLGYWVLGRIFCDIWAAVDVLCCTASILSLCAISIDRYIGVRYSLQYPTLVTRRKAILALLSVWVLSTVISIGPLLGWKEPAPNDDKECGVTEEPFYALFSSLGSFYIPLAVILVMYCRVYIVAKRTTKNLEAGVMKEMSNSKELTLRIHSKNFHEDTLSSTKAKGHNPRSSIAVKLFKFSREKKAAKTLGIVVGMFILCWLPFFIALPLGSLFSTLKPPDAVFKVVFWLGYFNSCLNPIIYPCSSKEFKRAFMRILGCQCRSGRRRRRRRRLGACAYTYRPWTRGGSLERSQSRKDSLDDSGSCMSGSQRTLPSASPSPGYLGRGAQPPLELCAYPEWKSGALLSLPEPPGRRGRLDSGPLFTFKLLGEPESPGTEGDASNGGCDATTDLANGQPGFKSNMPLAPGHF
In short: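 Affinities are from radioligand binding on membranes of mouse LTK fibroblast clones stably expressing each cloned α-1 subtype; rat submaxillary gland served as native α-1A tissue.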

[3] = [3H]-prazosin radioligand, cloned receptor in LTK cell membranes, read-out: Radioligand Binding (Ki, nM) 1b (Hamster)

Molecule	Kb [1] [nM]	Ki [2, 3] [nM]	In Vitro Characterization (pA2) Rat Vas [1]	Ki [2] [nM]	Ki ([2]; read-out: Radioligand Binding (Ki, nM) 1b (Hamster)) [nM]
COc1cccc2c1[C@@H]1CN(CCCCn3c(=O)[nH]c4c(sc5ccncc54)c3=O)C[C@H]1CO2 [Example 41, 3-[4-((3aS,9bR)-trans-9-Methoxy-1,2,3,3a,4,9b-hexahydro-[1]-benzopyrano[3,4-c]pyrrol-2-yl)butyl]-pyrido[3',4':4,5]thieno[3,2-d]pyrimidine-2,4(1H,3H)-dione dihydrochloride]	0.355	0.603			
COc1cccc2c1[C@@H]1CN(CCCCn3c(=O)[nH]c4c(sc5nc(Cl)ccc54)c3=O)C[C@H]1CO2 [Example 47, 3-[4-((3aS,9bR)-trans-9-Methoxy-1,2,3,3a,4,9b-hexahydro-[1]-benzopyrano[3,4-c]pyrrol-2-yl)butyl]-7-chloro-pyrido[3',2':4,5]thieno[3,2-d]pyrimidine-2,4(1H,3H)-dione hydrochloride]	1.12	2.4			
COc1cc2nc(N3CCN(C(=O)C4COc5ccccc5O4)CC3)nc(N)c2cc1OC (centres unmarked) [Doxazosin, doxazosin, reference compound]			8.69	0.793	
COc1cccc2c1[C@@H]1CN(CCCCn3c(=O)[nH]c4c(sc5ncc(-c6ccccc6)nc54)c3=O)C[C@@H]1CO2 [Example 39, 3-[4-((3aR,9bR)-cis-9-Methoxy-1,2,3,3a,4,9b-hexahydro-[1]-benzopyrano[3,4-c]pyrrol-2-yl)butyl]-8-phenyl-pyrazino[2',3':4,5]thieno[3,2-d]pyrimidine-2,4(1H,3H)-dione hydrochloride]	0.162	31.9			
COc1cccc2c1[C@H]1CN(CCCCn3c(=O)[nH]c4c(sc5nccnc54)c3=O)C[C@@H]1CO2.Cl.Cl (racemic) [Example 74, 3-[4-((±)-trans-9-Methoxy-1,2,3,3a,4,9b-hexahydro-[1]-benzopyrano[3,4-c]pyrrol-2-yl)butyl]-pyrazino[2',3':4,5]thieno[3,2-d]pyrimidine-2,4(1H,3H)-dione dihydrochloride]	0.794				14.3
COc1cccc2c1[C@@H]1CN(CCCCn3c(=O)[nH]c4c(sc5ccncc54)c3=O)C[C@@H]1CO2 [Example 28, 3-[4-((3aR,9bR)-cis-9-Methoxy-1,2,3,3a,4,9b-hexahydro-[1]-benzopyrano[3,4-c]pyrrol-2-yl)butyl]-pyrido[3',4':4,5]thieno[3,2-d]pyrimidine-2,4(1H,3H)-dione dihydrochloride]	0.407	3.69			
COc1cccc2c1[C@@H]1CN(CCCCn3c(=O)[nH]c4c(sc5nccc(OC)c54)c3=O)C[C@@H]1CO2 [Example 36, 3-[4-((3aR,9bR)-cis-9-Methoxy-1,2,3,3a,4,9b-hexahydro-[1]-benzopyrano[3,4-c]pyrrol-2-yl)butyl]-9-methoxy-pyrido[3',2':4,5]thieno[3,2-d]pyrimidine-2,4(1H,3H)-dione hydrochloride]	0.537	2.85			
COc1ccc2sc3c(=O)n(CCCCN4C[C@@H]5COc6cccc(OC)c6[C@@H]5C4)c(=O)[nH]c3c2n1 [Example 30, 3-[4-((3aR,9bR)-cis-9-Methoxy-1,2,3,3a,4,9b-hexahydro-[1]-benzopyrano[3,4-c]pyrrol-2-yl)butyl]-8-methoxy-pyrido[2',3':4,5]thieno[3,2-d]pyrimidine-2,4(1H,3H)-dione hydrochloride]	0.251	2.67			
COc1cccc2c1[C@@H]1CN(CCCCn3c(=O)[nH]c4c(sc5nc(C)ccc54)c3=O)C[C@@H]1CO2 [Example 35, 3-[4-((3aR,9bR)-cis-9-Methoxy-1,2,3,3a,4,9b-hexahydro-[1]-benzopyrano[3,4-c]pyrrol-2-yl)butyl]-7-methyl-pyrido[3',2':4,5]thieno[3,2-d]pyrimidine-2,4(1H,3H)-dione hydrochloride]	1.26	5.12			
3-[4-((3aR,9bR)-cis-9-Methoxy-1,2,3,3a,4,9b-hexahydro-[1]-benzopyrano[3,4-c]pyrrol-2-yl]butyl]-7-methoxy-pyrido[3',2':4,5]thieno[3,2-d]pyrimidine-2,4(1H,3H)-dione hydrochloride [Example 33]		10.5	9.02		
COc1cccc2c1[C@@H]1CN(CCCCn3c(=O)[nH]c4c(sc5ccc(OC(C)C)nc54)c3=O)C[C@H]1CO2 [Example 51, 3-[4-((3aS,9bR)-trans-9-Methoxy-1,2,3,3a,4,9b-hexahydro-[1]-benzopyrano[3,4-c]pyrrol-2-yl)butyl]-8-isopropoxy-pyrido[2',3':4,5]thieno[3,2-d]pyrimidine-2,4(1H,3H)-dione hydrochloride]	0.631	0.868			
COc1cccc2c1[C@@H]1CN(CCCCn3c(=O)[nH]c4c(sc5ccc(Cl)nc54)c3=O)C[C@@H]1CO2 [Example 37, 3-[4-((3aR,9bR)-cis-9-Methoxy-1,2,3,3a,4,9b-hexahydro-[1]-benzopyrano[3,4-c]pyrrol-2-yl)butyl]-8-chloro-pyrido[2',3':4,5]thieno[3,2-d]pyrimidine-2,4(1H,3H)-dione hydrochloride]	0.204	3.34			
COc1ccc2sc3c(=O)n(CCCCN4C[C@H]5COc6cccc(OC)c6[C@@H]5C4)c(=O)[nH]c3c2n1 [Example 26, 3-[4-((3aS,9bR)-trans-9-Methoxy-1,2,3,3a,4,9b-hexahydro-[1]-benzopyrano[3,4-c]pyrrol-2-yl)butyl]-8-methoxy-pyrido[2',3':4,5]thieno[3,2-d]pyrimidine-2,4(1H,3H)-dione hydrochloride]	0.0457	0.376			
COc1cccc2c1[C@@H]1CN(CCCCn3c(=O)[nH]c4c(sc5cnccc54)c3=O)C[C@H]1CO2 [Example 42, 3-[4-((3aS,9bR)-trans-9-Methoxy-1,2,3,3a,4,9b-hexahydro-[1]-benzopyrano[3,4-c]pyrrol-2-yl)butyl]-pyrido[4',3':4,5]thieno[3,2-d]pyrimidine-2,4(1H,3H)-dione dihydrochloride]	0.257	0.829			
COc1cccc2c1[C@@H]1CN(CCCCn3c(=O)[nH]c4c(sc5nc(-c6ccccc6)cnc54)c3=O)C[C@@H]1CO2 [Example 40, 3-[4-((3aR,9bR)-cis-9-Methoxy-1,2,3,3a,4,9b-hexahydro-[1]-benzopyrano[3,4-c]pyrrol-2-yl)butyl]-7-phenyl-pyrazino[2',3':4,5]thieno[3,2-d]pyrimidine-2,4(1H,3H)-dione hydrochloride]	3.02	33.8			
COc1cccc2c1[C@@H]1CN(CCCCn3c(=O)[nH]c4c(sc5c(OC)ccnc54)c3=O)C[C@@H]1CO2 [Example 18, 3-[4-((3aR,9bR)-cis-9-Methoxy-1,2,3,3a,4,9b-hexahydro[1]-benzopyrano[3,4-c]pyrrol-2-yl)butyl]-6-methoxy-pyrido[2',3':4,5]thieno[3,2-d]pyrimidine-2,4(1H,3H)-dione dihydrochloride]	0.741	5.06			
COc1cccc2c1[C@@H]1CCN(CCCCn3c(=O)[nH]c4c(sc5ncc(Cl)nc54)c3=O)C[C@H]1CO2 [Example 97, 3-[4-((4aS,10bR)-trans-10-Methoxy-1,3,4,4a,5,10b-hexahydro-2H-[1]-benzopyrano[3,4-c]pyrido-3-yl)butyl]-8-chloro-pyrazino[2',3':4,5]thieno[3,2-d]pyrimidine-2,4(1H,3H)-dione dihydrochloride]	1.55	4.7			
COc1cnc2sc3c(=O)n(CCCCN4C[C@@H]5COc6cccc(OC)c6[C@@H]5C4)c(=O)[nH]c3c2n1 [Example 31, 3-[4-((3aR,9bR)-cis-9-Methoxy-1,2,3,3a,4,9b-hexahydro-[1]-benzopyrano[3,4-c]pyrrol-2-yl)butyl]-8-methoxy-pyrazino[2',3':4,5]thieno[3,2-d]pyrimidine-2,4(1H,3H)-dione hydrochloride]	0.229	4.79			
COc1cccc2c1[C@@H]1CN(CCCCn3c(=O)[nH]c4c(sc5ncccc54)c3=O)C[C@H]1CO2 [Example 44, 3-[4-((3aS,9bR)-trans-9-Methoxy-1,2,3,3a,4,9b-hexahydro-[1]-benzopyrano[3,4-c]pyrrol-2-yl)butyl]-pyrido[3',2':4,5]thieno[3,2-d]pyrimidine-2,4(1H,3H)-dione hydrochloride]	0.11	0.622			

Reference: patent EP0942911B1, “BENZOPYRANOPYRROLE AND BENZOPYRANOPYRIDINE ALPHA-1 ADRENERGIC COMPOUNDS” (Abbott Laboratories, priority 1996, dated 1998)
